Tests used:
Format in all cases: cell-based
[1] = tested on: Bifidobacterium infantis strain JCM1222; experiment: cholic acid uptake by Bifidobacterium infantis strain JCM1222 in a nystose added-cell suspension
Description: (§1) Lactic acid bacteria were cultured in a commercially available MRS medium overnight. The composition of the medium was as follows:
(§2) The harvested cells were washed with a buffer (pH 7.0) of 50 mM potassium phosphate containing 1 mM magnesium sulfate, and then the washed cells were re-suspended in a buffer comprising the same composition. The resulting cell suspension was allowed to stand for 30 minutes to make the cell membrane of the cells the state of deactivation. Then, the cells were harvested by centrifuging the suspension and washed with a buffer (pH 7.0) of 50 mM potassium phosphate containing 1 mM magnesium sulfate. […]
(§3) To 96 μl of the cell suspension prepared as above, 2 μl of 6 mM cholic acid solution (cholic acid (chenodeoxycholic acid) labeled with ^14C, 16 mCi/mmol) was added, and after allowing the resulting suspension to stand for 15 minutes, 0.1 μl of 0.33 M oligosaccharide solution was added thereto, and the measurement of the activity of bile acid uptake was started. After a predetermined time, the reaction was stopped by adding 3 ml of a buffer of 100 mM potassium phosphate containing 100 mM […], and then the reaction solution was filtered through a cellulose acetate membrane (pore size: 0.45 μm), and the radioactivity left on the membrane was measured by a scintillation counter. […]

[2] = tested on: Bifidobacterium breve strain JCM1192; experiment: activity of chenodeoxycholic acid uptake by Bifidobacterium breve strain JCM1192 in the presence of an oligosaccharide; conditions: for chenodeoxycholic acid concentration in the cells relative to that of the outside of the cells: 14C-labeled chenodeoxycholic acid, oligosaccharide added at 15 minutes after reaction start, maximum rise
Description: as §1
The harvested cells were washed with a buffer (pH 7.0) of 50 mM potassium phosphate containing 1 mM magnesium sulfate, and then the washed cells were re-suspended in a buffer comprising the same composition. The resulting cell suspension was allowed to stand for 30 minutes to make the cell membrane of the cells the state of deactivation. Then, the cells were harvested by centrifuging the suspension and washed with a buffer (pH 7.0) of 50 mM potassium phosphate containing 1 mM magnesium sulfate. Thereafter, the washed cells were re-suspended in a buffer comprising the same composition, and the cell suspension was adjusted so as to have the turbidity of 10.
To 96 μl of the cell suspension prepared as above, 2 μl of 6 mM cholic acid solution (cholic acid (chenodeoxycholic acid) labeled with ^14C, 16 mCi/mmol) was added, and after allowing the resulting suspension to stand for 15 minutes, 0.1 μl of 0.33 M oligosaccharide solution was added thereto, and the measurement of the activity of bile acid uptake was started. After a predetermined time, the reaction was stopped by adding 3 ml of a buffer of 100 mM potassium phosphate containing 100 mM […], and then the reaction solution was filtered through a cellulose acetate membrane (pore size: 0.45 μm), and the radioactivity left on the membrane was measured by a scintillation counter. In addition, as a control, the radioactivity of a sample adding no oligosaccharide was measured similarly.

[3] = tested on: Lactobacillus salivarius ssp. salicinius strain JCM1044; experiment: activity of cholic acid uptake by Lactobacillus salivarius ssp. salicinius strain JCM1044 in the presence of an oligosaccharide; conditions: 14C-labeled cholic acid; oligosaccharide added at 15 minutes after reaction start; control without oligosaccharide unchanged
Description: as §1, §2, §3

[4] = tested on: Bifidobacterium breve strain JCM1192; experiment: activity of cholic acid uptake by Bifidobacterium breve strain JCM1192 in the presence of an oligosaccharide; conditions: 14C-labeled cholic acid; oligosaccharide added at 15 minutes after reaction start; control without oligosaccharide unchanged
Description: as §1, §2, §3

## OC[C@H]1O[C@@](CO)(OC[C@@]2(OC[C@@]3(O[C@H]4O[C@H](CO)[C@@H](O)[C@H](O)[C@H]4O)O[C@H](CO)[C@@H](O)[C@@H]3O)O[C@H](CO)[C@@H](O)[C@@H]2O)[C@@H](O)[C@@H]1O [nystose]
[1]
  cholic acid incorporation into the cells: cholic acid was incorporated into the cells

## OC[C@H]1O[C@@](CO)(OC[C@@]2(O[C@H]3O[C@H](CO)[C@@H](O)[C@H](O)[C@H]3O)O[C@H](CO)[C@@H](O)[C@@H]2O)[C@@H](O)[C@@H]1O [1-kestose]
[2]
  chenodeoxycholic acid concentration in the cells relative to that of the outside of the cells: about 15 times
[2]; after oligosaccharide almost consumed (after 30 minutes), concentration came to equilibrium
  chenodeoxycholic acid concentration in the cells relative to outside at equilibrium after passive elimination: about 2 times
[3]
  cholic acid concentration in the cells relative to that of the outside of the cells: about 13 times
[4]
  cholic acid concentration in the cells relative to that of the outside of the cells: about 24 times

## OC[C@H]1O[C@H](OC[C@H]2O[C@H](O[C@]3(CO)O[C@H](CO)[C@@H](O)[C@@H]3O)[C@H](O)[C@@H](O)[C@@H]2O)[C@H](O)[C@@H](O)[C@H]1O [raffinose]
[2]
  chenodeoxycholic acid concentration in the cells relative to that of the outside of the cells: about 6 times
[3]
  cholic acid concentration in the cells relative to that of the outside of the cells: about 8 times
[4]
  cholic acid concentration in the cells relative to that of the outside of the cells: about 30 times
